Results as given in patent publication US10774082B2, “Quinazoline compound” (Astellas Pharma Inc., priority 2017, dated 2020).

test system: NCI-H1373 tumor; experiment: Antitumor effect in NCI-H1373 tumor-bearing mouse; type: in vivo; conditions: 10 mg/kg orally once a day for 13 or 14 days
Experimental: Evaluation of Antitumor Effect in Human KRAS G12C Mutation Positive Non-Small Cell Lung Cancer Strain NCI-H1373 Tumor-Bearing Mouse
A cell suspension prepared per 3.0×10^7/mL by suspending NCI-H1373 cells in PBS, an equivalent amount of Matrigel (Becton, Dickinson and Company) was added thereto, and the cell suspension was subcutaneously planted in a volume of 100 μL to male nude mice of 4-5 weeks old (CAnN.Cg-Foxnlnu/CrlCrlj (nu/nu), Charles River Laboratories Japan, Inc.). Approximately 2 weeks after planting, groups were divided so that tumor volume and body weight between the groups were almost equivalent to each other, and administration of the test compound was started from the next day. The test was conducted with five mice in a solvent group and five mice in a test compound administration group, and an aqueous solution of 6% 2-hydroxypropyl-β-cyclodextrin (Sigma-Aldrich Co. LLC) was orally administered to the solvent group and an aqueous solution of 6% 2-hydroxypropyl-β-cyclodextrin which the test compound (10 or 40 mg/kg) was mixed was orally administered to the test compound administration group. The administration was performed once a day for 13 or 14 days, and tumor diameter and volume were measured twice a week. For calculation of tumor volume, the following formula was used. [tumor volume (mm^3)]=[major diameter (mm) of tumor]×[minor diameter (mm) of tumor]^2×0.5
The tumor growth inhibition rate (%) by the test compound was calculated by setting the tumor volume of the test compound administration group on the day before the administration started as 100% inhibition, and the tumor volume of the solvent group on the last day of administration as 0% inhibition. In addition, in a case where the tumor volume of the test compound administration group was lower than the tumor volume on the day before the administration started, the tumor regression rate (%) of the test compound was calculated by setting the tumor volume on the day before the administration started as 0% regression, and the tumor volume 0 as 100% regression.

| SMILES | Antitumor effect: tumor regression rate |
| --- | --- |
| C=CC(=O)N1CC2(CCN(c3nc(OC4CCN(CC(C)(C)O)CC4)nc4c(OCC(F)(F)F)c(-c5c(C)ccc6[nH]ncc56)c(C=C)cc34)CC2)C1 [Example 40] | 15% regression |
| C=CC(=O)N1CC2(CCN(c3nc(OC4CCN(CCOC)CC4)nc4c(OCC(F)(F)F)c(-c5c(C)ccc6[nH]ncc56)c(C5CC5)cc34)CC2)C1 [Example 35] | 72% regression |
| C=CC(=O)N1CC2(CCN(c3nc(OC4CCN(CCOCC)CC4)nc4c(OCC(F)(F)F)c(-c5c(C)ccc6[nH]ncc56)c(C=C)cc34)CC2)C1 [Example 37] | 58% regression |
